Source: patent publication US10000498B2, “Selective proton coupled folate transporter and folate receptor, and GARFTase inhibitor compounds and methods of using the same” (Duquesne University of the Holy Spirit, priority 2008, dated 2018)
Like-named read-outs stand apart in the source and are kept apart here. Each block holds one compound with its values, some of them ahead of it.

Columns and labels:
[1] = test system: KB human tumor cells (hRFC/FRα); assay: Growth inhibition of KB human tumor cells (Cell Titer-blue cytotoxicity screen), with or without folic acid; format: cell-based
[2] = test system: R2/VC cells (vector control R2 CHO); assay: Growth inhibition of vector control R2 CHO cells (Cell TiterBlue, 96 h); format: cell-based, Chinese hamster; settings: Cricetulus griseus, read-out: Growth inhibition 50% inhibitory concentration, R2/VC
[3] = mouse, in vivo; cited from earlier work
[4] = biological target: thymidylate synthase (TS) (Homo sapiens, UniProt P04818); settings: cited from earlier work
[5] = biological target: T1, GARFTase (Homo sapiens, UniProt P22102); assay: In situ GARFTase assay (14C-glycine incorporation into formyl glycinamide ribonucleotide); format: cell-based; settings: mean IC50, SEM in parentheses
T1 construct: In the in situ GARFTase assay, incorporation of ^14C-glycine into formyl glycinamide ribonucleotide was measured; endogenous in cells
T1 sequence (P22102 1-1010): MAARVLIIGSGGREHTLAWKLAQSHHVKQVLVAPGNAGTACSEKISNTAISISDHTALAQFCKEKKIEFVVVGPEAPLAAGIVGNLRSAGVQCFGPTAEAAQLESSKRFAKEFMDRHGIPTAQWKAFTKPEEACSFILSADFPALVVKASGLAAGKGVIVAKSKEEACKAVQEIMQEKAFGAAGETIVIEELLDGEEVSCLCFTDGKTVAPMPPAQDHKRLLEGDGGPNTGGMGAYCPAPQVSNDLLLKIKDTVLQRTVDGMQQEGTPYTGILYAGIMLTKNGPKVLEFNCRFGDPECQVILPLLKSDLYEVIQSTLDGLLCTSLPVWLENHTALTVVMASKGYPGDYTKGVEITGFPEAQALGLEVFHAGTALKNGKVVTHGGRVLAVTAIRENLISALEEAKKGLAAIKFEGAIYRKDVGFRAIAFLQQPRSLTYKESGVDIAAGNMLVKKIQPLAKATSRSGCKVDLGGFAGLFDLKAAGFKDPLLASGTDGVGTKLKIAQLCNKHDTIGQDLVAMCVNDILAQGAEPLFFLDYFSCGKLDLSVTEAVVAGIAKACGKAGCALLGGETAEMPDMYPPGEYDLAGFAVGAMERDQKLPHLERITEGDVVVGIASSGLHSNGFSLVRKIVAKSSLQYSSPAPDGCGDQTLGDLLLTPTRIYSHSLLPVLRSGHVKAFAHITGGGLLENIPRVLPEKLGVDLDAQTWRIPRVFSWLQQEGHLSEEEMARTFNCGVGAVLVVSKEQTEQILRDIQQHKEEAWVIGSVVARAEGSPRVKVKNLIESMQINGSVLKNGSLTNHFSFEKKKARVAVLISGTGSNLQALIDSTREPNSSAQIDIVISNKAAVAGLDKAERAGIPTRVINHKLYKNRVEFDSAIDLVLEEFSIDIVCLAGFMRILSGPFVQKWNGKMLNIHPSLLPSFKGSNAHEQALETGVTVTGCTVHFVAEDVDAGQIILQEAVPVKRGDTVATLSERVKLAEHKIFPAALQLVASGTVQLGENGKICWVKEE

[6] = test system: R2 CHO cells (hRFC- and FR-null); assay: Growth inhibition of hRFC- and FR-null R2 CHO cells; format: cell-based, Chinese hamster; settings: Cricetulus griseus, RPMI1640/10% dialyzed fetal bovine serum, mean of 2-3 experiments
[7] = biological target: T2, purified recombinant mouse GARFTase (Mus musculus, UniProt Q64737); assay: In vitro GARFTase inhibition assay; format: biochemical; settings: purified recombinant mouse GARFTase; mean IC50, SEM in parentheses
T2 sequence (Q64737 2-1010 limits assumed): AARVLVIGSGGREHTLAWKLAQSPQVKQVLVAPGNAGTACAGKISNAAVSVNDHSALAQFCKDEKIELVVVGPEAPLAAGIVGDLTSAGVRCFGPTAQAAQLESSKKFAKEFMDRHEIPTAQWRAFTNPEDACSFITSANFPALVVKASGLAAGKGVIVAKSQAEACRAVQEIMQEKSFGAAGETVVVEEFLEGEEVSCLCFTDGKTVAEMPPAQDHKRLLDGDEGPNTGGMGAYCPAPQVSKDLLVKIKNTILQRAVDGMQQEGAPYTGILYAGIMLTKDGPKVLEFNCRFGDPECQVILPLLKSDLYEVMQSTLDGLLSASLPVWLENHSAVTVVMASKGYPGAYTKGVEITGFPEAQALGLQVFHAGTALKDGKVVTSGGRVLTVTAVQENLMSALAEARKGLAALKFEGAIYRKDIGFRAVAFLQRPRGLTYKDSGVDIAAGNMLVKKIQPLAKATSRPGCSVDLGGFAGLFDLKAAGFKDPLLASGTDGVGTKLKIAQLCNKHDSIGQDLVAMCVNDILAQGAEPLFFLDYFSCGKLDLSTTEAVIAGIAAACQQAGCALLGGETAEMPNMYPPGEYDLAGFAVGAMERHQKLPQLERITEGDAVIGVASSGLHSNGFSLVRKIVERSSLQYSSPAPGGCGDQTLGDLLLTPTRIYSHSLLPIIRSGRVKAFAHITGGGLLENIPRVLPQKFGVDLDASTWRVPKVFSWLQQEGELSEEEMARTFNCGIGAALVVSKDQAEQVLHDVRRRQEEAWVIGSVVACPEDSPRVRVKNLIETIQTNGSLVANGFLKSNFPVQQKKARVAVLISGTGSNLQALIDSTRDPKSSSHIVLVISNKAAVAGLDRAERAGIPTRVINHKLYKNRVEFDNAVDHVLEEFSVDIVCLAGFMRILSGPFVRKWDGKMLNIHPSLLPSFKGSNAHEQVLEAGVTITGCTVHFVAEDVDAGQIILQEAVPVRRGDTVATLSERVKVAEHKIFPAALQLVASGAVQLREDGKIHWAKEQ

[8] = biological target: FRα (Homo sapiens, UniProt P15328); assay: FRα binding affinity relative to folic acid; settings: folic acid set to 1
[9] = test system: RT16 cells (hFRα-expressing Chinese hamster ovary); assay: Growth inhibition of FR-expressing RT16 CHO cells, with or without folic acid; format: cell-based; settings: for IC50: Cricetulus griseus, RT16
[10] = test system: PC43-10 cells (hRFC-expressing Chinese hamster ovary); assay: Growth inhibition of hRFC-expressing PC43-10 CHO cells; format: cell-based
[11] = in vivo; cited from earlier work
[12] = Homo sapiens, RPMI1640/10% dialyzed fetal bovine serum, without folic acid, read-out: Growth inhibition (IC50, nM) hRFC/FRα KB
[13] = folate-free RPMI1640/10% dialyzed FBS, 25 nM leucovorin

Sequence of thymidylate synthase (TS) (P04818 whole entry, species assumed): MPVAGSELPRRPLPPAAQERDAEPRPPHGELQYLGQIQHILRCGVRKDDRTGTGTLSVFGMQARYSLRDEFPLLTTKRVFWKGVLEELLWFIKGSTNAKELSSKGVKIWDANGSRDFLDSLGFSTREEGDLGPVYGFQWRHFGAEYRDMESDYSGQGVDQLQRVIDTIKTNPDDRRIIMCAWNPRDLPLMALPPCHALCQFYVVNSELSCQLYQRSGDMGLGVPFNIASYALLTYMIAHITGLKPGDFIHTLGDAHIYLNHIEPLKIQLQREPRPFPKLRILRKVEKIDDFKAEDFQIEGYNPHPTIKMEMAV
Sequence of FRα (P15328 25-234): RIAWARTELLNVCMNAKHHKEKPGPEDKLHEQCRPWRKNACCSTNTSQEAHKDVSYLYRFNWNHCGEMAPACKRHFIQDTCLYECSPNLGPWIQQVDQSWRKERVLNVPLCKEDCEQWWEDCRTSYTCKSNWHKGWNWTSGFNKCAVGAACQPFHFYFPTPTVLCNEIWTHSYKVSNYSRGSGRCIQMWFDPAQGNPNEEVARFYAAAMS

SMILES: Nc1nc2[nH]c(CCCCc3ccc(C(=O)N[C@@H](CCC(=O)O)C(=O)O)o3)cc2c(=O)[nH]1 [AAG154489, (S)-2-({5-[4-(2-amino-4-oxo-4,7-dihydro-3H-pyrrolo[2,3-d]pyrimidin-6-yl)-butyl]-furan-2-carbonyl}-amino)-pentanedioic acid]
IC50 [1, 12]: 0.3 nM

SMILES: Nc1nc2[nH]cc(CCc3ccc(C(=O)N[C@@H](CCC(=O)O)C(=O)O)cc3)c2c(=O)[nH]1 [Pemetrexed, pemetrexed, reference compound]
IC50 [2]: 150 ± 22.5 nM

SMILES: C#CCN(c1ccc(C(=O)N[C@@H](CCC(=O)N[C@H](CCC(=O)O)C(=O)O)C(=O)O)cc1)[C@H]1CCc2cc3nc(CO)[nH]c(=O)c3cc21 [BGC945]
Toxicity to normal tissues in mice [3]: no toxicity to normal tissues | Inhibition of thymidylate synthase (TS) within cells [4]: potently inhibit

IC50 [5]: 7.65 nM | IC50 [7]: 3310 nM | FRα binding affinity compared to folic acid [8]: very high binding affinities
SMILES: Nc1nc2[nH]c(CCCCCc3ccc(C(=O)N[C@@H](CCC(=O)O)C(=O)O)s3)cc2c(=O)[nH]1 [AAG154360, (S)-2-({5-[5-(2-amino-4-oxo-4,7-dihydro-3H-pyrrolo[2,3-d]pyrimidin-6-yl)-pentyl]-thiophene-2-carbonyl}-amino)-pentanedioic acid]
IC50 [6]: > 1000 nM | IC50 [1, 12]: 3.4 nM | IC50 ([1]; Homo sapiens, co-treatment with folic acid (200 nM), read-out: Growth inhibition (IC50, nM) hRFC/FRα KB (+FA)): > 1000 nM | Effect of folic acid co-treatment on growth inhibition of KB cells ([1]; folic acid 200 nM): completely reversed growth inhibition | IC50 ([9]; RPMI1640/10% dialyzed fetal bovine serum, without folic acid, read-out: Growth inhibition (IC50, nM) hFRα RT16): 2 nM | IC50 ([9]; in the presence of an elevated concentration of folic acid, read-out: Growth inhibition (IC50, nM) hFRα RT16 (+FA)): > 1000 nM | Growth inhibition / FR-targeted activity toward RT16 cells (in words) ([9]; cells expressing FRα): high level of FR-targeted activity | IC50 ([10]; Cricetulus griseus, PC43-10, RPMI1640/10% dialyzed fetal bovine serum, mean of 2-3 experiments, read-out: Growth inhibition (IC50, nM) hRFC PC43-10): > 1000 nM | Growth inhibition of hRFC-expressing PC43-10 cells (in words) ([10]; only RFC): Neither AAG154353 and AAG154360 showed appreciable growth inhibition

SMILES: C#CCN(c1ccc(C(=O)N[C@@H](CCC(=O)N[C@H](CCC(=O)O)C(=O)O)C(=O)O)cc1)[C@H]1CCc2cc3nc(C)[nH]c(=O)c3cc21 [BGC638]
Inhibition of thymidylate synthase (TS) within cells [4]: potently inhibit

SMILES: Cc1nc2ccc(CN(C)c3ccc(C(=O)N[C@@H](CCC(=O)O)C(=O)O)s3)cc2c(=O)[nH]1 [Raltitrexed, raltitrexed, reference compound]
IC50 [2, 13]: 604 ± 53.6 nM

SMILES: Cc1nc2ccc3ccc(CNc4ccc5c(c4)CN([C@@H](CCC(=O)O)C(=O)O)C5=O)cc3c2c(=O)[nH]1 [GW1843U89, reference compound]
IC50 ([1]; RPMI1640/10% dialyzed fetal bovine serum, without folic acid, read-out: Growth inhibition (IC50, nM) hRFC/FRα KB): 5.8 nM | IC50 ([1]; co-treatment with folic acid (200 nM), read-out: Growth inhibition (IC50, nM) hRFC/FRα KB (+FA)): 32 nM

SMILES: Nc1nc2c(c(=O)[nH]1)C[C@@H](CCc1ccc(C(=O)N[C@@H](CCC(=O)O)C(=O)O)cc1)CN2 [Lometrexol, lometrexol, reference compound]
Toxicity in phase 1 studies [11]: severe myelosupression | IC50 [7]: 780 nM | IC50 [2]: > 1000 nM

melting point: 196 to 197 °C
SMILES: Nc1nc2[nH]c(CCC#Cc3ccc(C(=O)N[C@@H](CCC(=O)O)C(=O)O)s3)cc2c(=O)[nH]1 [AAG154468, (S)-2-({5-[4-(2-amino-4-oxo-4,7-dihydro-3H-pyrrolo[2,3-d]pyrimidin-6-yl)-but-1-ynyl]-thiophene-2-carbonyl}-amino)-pentanedioic acid]
IC50 [1, 12]: 122 nM

SMILES: CN(Cc1cnc2nc(N)nc(N)c2n1)c1ccc(C(=O)N[C@@H](CCC(=O)O)C(=O)O)cc1 [Methotrexate, methotrexate]
IC50 [2, 13]: > 1000 nM
